{"source": "patent EP3335730A1", "about": "“COMPOUNDS FOR TREATING X-LINKED ADRENOLEUKODYSTROPHY” (Fundació Institut de Recerca Biomédica de Bellvitge …, priority 2016, dated 2018)", "key": {"Abcd1^-/Abcd2^-/- mice [1]": {"system": "Abcd1^-/Abcd2^-/- mice", "assay": "Immunohistochemistry of axonal degeneration, microgliosis and astrocytosis in spinal cord", "assay_type": "in vivo", "details": "17-month-old double knockout mice, 0.4% w/w TUDCA in chow for 4 months from 13 months of age", "method": "(§1) The bile acid tauroursodeoxycholic acid TUDCA (Prodotti Chimici e Alimentari S.p.A., Italy) was mixed into AIN-76A chow (Dyets) at 0.4% w/w. Male mice were randomly assigned to one of the following groups: wild-type mice (n=10) that received normal AIN-76A chow, Abcd1^-/- mice (n=10) that received normal AIN-76A chow and Abcd1^-l- mice (n=10) that received AIN-76A chow containing TUDCA. The animals were treated for 3 months starting at 9 months of age to assess its effect on the progression of the biochemical signs of X-linked adrenoleukodystrophy. The double knockout mice and their control littermates were randomly assigned to one of the following groups: wild-type mice (n=10) that received normal AIN-76A chow; double knockout mice (n =10) that received normal AIN-76A chow; and double knockout mice (n =10) that received AIN-76A chow containing TUDCA. The animals were treated for 4 months starting at 13 months of age to coincide with the onset of clinical signs. TUDCA had no effect on weight or food intake under either treatment protocol.\n[…] Immunohistochemistry was carried out with the avidin-biotin peroxidase method and at least five sections of the spinal cord were analysed per animal and per stain. […] The results were expressed as the mean ± standard deviation. […]"}, "Abcd1 null mice": {"system": "Abcd1 null mice", "assay": "Immunoblot (Western blot) of ER stress and UPR markers in spinal cords of X-ALD mice", "assay_type": "in vivo", "details": "diet with 0.4 % (wt/wt) TUDCA for 3 months", "excerpt": "The generation and genotyping of Abcd1 null mice have been previously described (Pujol A. et al., Hum Mol Genet 2002; 11:499-505, Lu JF. et al., Proc.Natl.Acad.Sci.U.S.A 1997; 94:9366-9371.). Mice used for experiments were of a pure C57BL/6J background. Abcd1 null and WT mice were separated into control and treated groups. Treated groups were fed with a mixture of antioxidants that included 1000 iu/kg Vitamin E and 0.5% α-lipoic acid in the diet and 1% N-acetyl-cysteine (NAC) in water. Daily feedings were initiated at 8 months of age and were continued for 4 months until sacrifice.\n(§2) The bile acid tauroursodeoxycholic acid TUDCA (Prodotti Chimici e Alimentari S.p.A., Italy) was mixed into AIN-76A chow (Dyets) at 0.4% w/w. Male mice were randomly assigned to one of the following groups: wild-type mice (n=10) that received normal AIN-76A chow, Abcd1^-/- mice (n=10) that received normal AIN-76A chow and Abcd1^-l- mice (n=10) that received AIN-76A chow containing TUDCA. The animals were treated for 3 months starting at 9 months of age to assess its effect on the progression of the biochemical signs of X-linked adrenoleukodystrophy. […]\nTissues were lysed in ice-cold RIPA buffer (50 mM Tris-HCl, pH 8, 12 mM deoxycholic acid, 150 mM NaCl and 1% NP40, supplemented with Complete Protease Inhibitor Cocktail, Roche) using a Teflon-on-glass homogenizer and then centrifuged at 1500 x g for 10 min at 4°C. The protein concentration was determined using a BCA protein assay kit (Thermo Fisher Scientific, Inc.). […]\nTo determine whether ER stress is regulated by redox imbalance in vivo, the inventors treated with antioxidants during 4 months the presymptomatic Abcd1 null mice at 8 months of age. Next, they assessed by Western Blots the presence of ER stress and UPR responses.\nThe mouse model of the disease, the Abcd1 null mouse, develops a late onset axonopathy that resembles the most frequent X-linked adrenoleukodystrophy phenotype, AMN. […] Then, the inventors determined the protein levels of ER stress marker dysregulated in the Abcd1 null mice. […]"}, "Abcd1^-/Abcd2^-/- mice [2]": {"system": "Abcd1^-/Abcd2^-/- mice", "assay": "Treadmill test", "assay_type": "in vivo", "details": "double knockout mice, after 3 months of treatment with TUDCA; Figure 3B", "method": "as §2\n(§3) For behavioral testing, assessment of hindlimb clasping was done by suspending mice from their tails until it reached a vertical position, but allowing the mice to grab the grill of the lid of the cage with the forelimbs, adapted from Dumser et al. cited supra. Hindlimb reflex was analysed for 10s in three consecutive trials separated by 5 min rest. […]\n(§4) Locomotor deficits in Abcd1 /Abcd2^-/- mice were evaluated using clasping, treadmill and bar cross experiments after TUDCA treatment as described (Dumser M- et al., 2007 cited supra, Launay N. et al., 2015 cited supra). […]"}, "[3]": {"assay": "Weight and food intake during treatment in chow", "assay_type": "in vivo, mice", "details": "0.4% w/w in AIN-76A chow, either treatment protocol (3 months from 9 months; 4 months from 13 months)", "method": "as §1"}, "Abcd1^-/Abcd2^-/- mice [4]": {"system": "Abcd1^-/Abcd2^-/- mice", "assay": "Hindlimb clasping test", "assay_type": "in vivo", "details": "double knockout mice with TUDCA; untreated score 1, wild type 2; Figure 3A", "method": "as §2, §3, §4"}, "Abcd1^-/Abcd2^-/- mice [5]": {"system": "Abcd1^-/Abcd2^-/- mice", "assay": "Bar cross test", "assay_type": "in vivo", "details": "double knockout mice with TUDCA; Figure 3C", "method": "as §2, §3, §4"}}, "data": [{"compound": "C[C@H](CCC(=O)NCCS(=O)(=O)O)[C@H]1CC[C@H]2[C@@H]3[C@@H](O)C[C@@H]4C[C@H](O)CC[C@]4(C)[C@H]3CC[C@]12C", "note": "[TUDCA, 3α,7β-Dihydroxy-5β-cholanoyltaurine]", "values": [{"measurement": "axonal damage markers", "setting": "Abcd1^-/Abcd2^-/- mice [1]; APP and synaptophysin accumulation, Figures 2A, 2B", "result": "strikingly reduced to control levels"}, {"measurement": "numbers of reactive astrocytes and reactive microglia", "setting": "Abcd1^-/Abcd2^-/- mice [1]; GFAP and Iba-1 staining, Figure 2A", "result": "strikingly reduced to control levels"}, {"measurement": "ATF6, P-PERK, P-eif2α/eif2α, ATF4 and CHOP levels", "setting": "Abcd1 null mice; Figure 1C", "result": "normalized"}, {"measurement": "PDI upregulation", "setting": "Abcd1 null mice; Figure 1D", "result": "prevented"}, {"measurement": "levels of the ER chaperones GRP78 and GRP94", "setting": "Abcd1 null mice; Figure 1D", "result": "normalized"}, {"measurement": "shock times and number of shocks", "setting": "Abcd1^-/Abcd2^-/- mice [2]", "result": "indistinguishable from wild types"}, {"measurement": "food intake", "setting": "[3]", "result": "no effect"}, {"measurement": "weight", "setting": "[3]", "result": "no effect"}, {"measurement": "median clasping score", "setting": "Abcd1^-/Abcd2^-/- mice [4]", "result": 1.75}, {"measurement": "number of slips", "setting": "Abcd1^-/Abcd2^-/- mice [5]", "result": "normalized"}, {"measurement": "time necessary to cross the bar", "setting": "Abcd1^-/Abcd2^-/- mice [5]", "result": "normalized"}]}]}
